Experimental findings from patent publication US6071709A, “Nerve growth factor/receptor complex” (The United States of America as represented by the …, priority 1992, dated 2000) are described below.

One assay addresses T1, gp140^prototrk (Rattus norvegicus, UniProt P35739).
T1 construct: tyrosine phosphorylation in response to NGF addition to PC12 cells; endogenous in cells; host or cells: PC12 cells
Briefly: trk tyrosine phosphorylation in PC12 cells treated with NGF (32P labelling / Ptyr immunoblot of trk immunoprecipitates). It is filed as cell-based. The settings on record: 15 min at 37° C., 100 ng/ml FGF or EGF, 100 nM insulin, 1 μg/ml PMA. As for the experimental part: FIGS. 1A-C show the tyrosine phosphorylation of gp140trk in PC12 cells and trk-expressing NIH-3T3 cells treated with NGF. FIG. 1A, gp140trk immunoprecipitated from PC12 cells or trk-expressing 3T3 cells labeled with ^32 P-orthophosphate. Immunoprecipitates were prepared with rabbit anti-trk antisera 43-4 (D. Martin-Zanca et al., Mol Cell. Biol. 9:24-33 (1989)) from lysates prepared from 3T3 cells expressing the rat trk gene (trk 3T3) (lane 1) or PC12 cells treated for 5 min with 100 ng/ml NGF at 37° C. (lanes 2 and 4) or mock treated (lane 3). The immunoprecipitate shown in lane 2 was prepared in the presence of the peptide used to generate the rabbit 43-4 trk antibody (Martin-Zanca et al., (1989)). Shown in FIG. 1B is the phosphoamino acid analysis of trk proteins phosphorylated in vitro in p140trk immunoprecipitates from NGF treated PC12 cells in vivo from NGF treated (+) or untreated (-) PC12 cells, or in vivo from trk 3T3 cells. The positions of phosphoserine (S), phosphothreonine (T), and phosphotyrosine (Y) are indicated. FIG. 1C, trk proteins from trk 3T3 cells phosphorylated […]. In lanes 1-3, gp140trk immunoprecipitates were probed with P-tyr antibodies. In lanes 4-6, gp140trk proteins were phosphorylated in vitro in kinase assays. Cells were treated with suramin (lanes 2 and 5) or with 500 ng/ml NGF for 10 min following suramin treatment. The band migrating at 110 kDa is a glycosylation precursor of gp140^prototrk (Martin-Zanca et al., (1989)). The band at the bottom of the figure is IgG. Molecular weight markers in kDa are indicated.
rtrk 3T3 cells were generated by CaPO4 mediated transfection of a rat trk cDNA into NIH-3T3 cells. Rat trk cDNAs were obtained from an embryonic rat DRG cDNA library. The longest trk cDNA obtained (2.4 kbp) was missing approximately 150 bp of the coding region as compared to available mouse and human trk sequence. The missing bases plus minimal (~50 bp) 5' flanking non-coding sequences were replaced from mouse first coding exon sequences and the reconstructed gene was placed downstream of an MSV-LTR. PC12 cells or rtrk 3T3 cells (2×10^7) were labeled with ^32 P orthophosphate (1 mCi.ml in 4 ml) for 4 hr at 37° C. Cells were treated with NGF for the indicated times, washed, lysed in buffer containing 1% NP40, and the lysates immunoprecipitated with trk antibody 43-4 (D. R. Kaplan et al., Cell 61:125-133 (1990)) and electrophoresed on 7.5% SDS-PAGE gels as previously described (Kaplan et al., (1990)). For b, the phosphorylated trk bands were eluted from the gel and phosphoamino acid analysis performed as described (B. M. Sefton et al., J. Cell 24:165-174 (1981)). gp140trk protein from NGF treated PC12 cells was phosphorylated in vitro. For c, rtrk 3T3 cells were treated with 1 mM suramin in Dulbecco's Modified Eagle Medium (DMEM) for 2 h or mock treated. Following extensive washing of the cells with DMEM, NGF was added for the time indicated. Cells were lysed and the lysates were immunoprecipitated with trk antibody. Immunoprecipitates were either subjected to immunoblot analysis with the phosphotyrosine (Ptyr) monoclonal antibody 4G10 (Lanes 1-3), or were analyzed in kinase assays. (D. K. Morrison, et al. Cell 58:649-657 (1989) and Kaplan et al., (1990)). Similar amounts of trk protein were present in each lane.
FIGS. 2A-C. Time course, growth factor specificity, and dose response of trk tyrosine phosphorylation in PC12 cells. A, Time course of trk tyrosine phosphorylation. Cells (2×10^7) were treated with 50 ng/ml NGF at 37° C. B, Effects of growth and differentiation factors on trk tyrosine phosphorylation. Cells were treated with 100 ng/ml NGF, 100 ng/ml basic fibroblast growth factor (FGF) (Boehringer Mannheim Biochemicals), 100 ng/ml epidermal growth factor (EGF) (Upstate Biotechnology, Inc.), 100 nM insulin (Sigma), or 1 μg/ml phorbal 12-myristate […] (PMA) (Sigma) for 15 min. at 37° C. C, dose response of trk tyrosine phosphorylation. […]
On the technique in general: Immunoblotting shows a protein as a band on a membrane.

A further assay deals with p140^prototrk (Rattus norvegicus, UniProt P35739). Briefly: trk tyrosine phosphorylation in rtrk-3T3 cells, suramin treatment followed by NGF (in vivo and immune complex kinase assays). It is filed as cell-based. The settings on record: rtrk-3T3 cells, 1 mM suramin for 2 h.
A further assay has as its system gp145^trkB. Briefly: gp145^trkB tyrosine phosphorylation in trkB-expressing NIH 3T3 cells (pJM8 lines), immunoprecipitation and α-Ptyr Western. It is filed as cell-based, rat. The settings on record: for time to detection of trkB tyrosine phosphorylation / time to maximal levels of trkB tyrosine phosphorylation / concentration giving maximal gp145^trkB phosphorylation: pJM8-3 cells; for time to detection of trkB tyrosine phosphorylation / time to maximal levels of trkB tyrosine phosphorylation: 100 ng/ml; for concentration giving maximal gp145^trkB phosphorylation: dose response 0.1 to 250 ng/ml; for tyrosine phosphorylation of gp145^trkB: pJM8 trkB-expressing NIH 3T3 cells, 100 ng/ml factor, 5 min. As for the experimental part: A 4.8 kb cDNA encompassing the coding domain of rat trkB (Middlemas et al., (1991)) was cloned into the pMEX plasmid (pJM8) downstream of the MSV promoter. NIH 3T3 cells were cotransfected with the pJM8 plasmid and a plasmid containing the neomycin phosphotransferase gene (L. F. Parada et al., Nature 312:649-651 (1984)), and G418-resistant colonies were selected. PC12 cells (Greene and Tischler, 1976) were grown in DMEM with 10% horse serum and 5% fetal calf serum. NIH 3T3 cells and the derivative cells lines were maintained in DMEM medium containing 10% calf serum. All cells were maintained in a humidified incubator at 37° C. in 5% CO2.
Approximately 10^7 cells were treated at 37° C. for 5 min with 100 ng/ml growth factors or at the concentrations and lengths of time noted in the text. NP-40 plate lysis and gp145^trkB immunoprecipitation with anti-serum 443 were performed as previously described (Kaplan et al., (1990), (1991)). The phosphotyrosine content was analyzed by Western transfer using monoclonal antibody 4G10 as previously described (Morrison et al., (1989)).
The product of the trk proto-oncogene (gp140^proto-trk) is tyrosine phosphorylated in response to NGF in PC12 cells, NGF-responsive neuroblastoma cells, heterologous fibroblasts and Xenopus oocytes (Kaplan et al., (1991); A. R. Nebreda et al., Science 252:558-560 (1991); Klein et al., (1991)). Next it was examined whether NGF elicited tyrosine phosphorylation of gp145^trkB in trkB-expressing NIH 3T3 cells. Cell line pJM8-3 was treated with high concentrations of NGF (100 ng/ml) for 5 minutes. The cells were lysed, immunoprecipitated with anti-trkB antiserum 443, transferred to nitrocellulose filters and probed with anti-phosphotyrosine (α-Ptyr) antibodies. As a negative control, untransfected NIH-3T3 cells were treated in parallel, while PC12 cells were used as a positive control for NGF responsiveness (Kaplan et al., (1991)).
BDNF and NT-3 are neurotrophic factors that display many functional and structural features that are reminiscent of NGF. The genes encoding BDNF and NT-3 have recently been cloned and used to express high levels of the biologically active factors in pure form (A. Rosenthal et al., Neuron 4:773 (1990)). It was tested whether these NGF-related neurotrophic factors would stimulate phosphorylation of the trkB glycoprotein by exposing the pJM-8 cell lines to 100 ng/ml of NGF, BDNF, or NT-3 (~4 nM) for 5 minutes. The cells were then lysed and the lysates incubated with a trkB anti-peptide antiserum (443) with or without excess peptide. After transfer to nitrocellulose filters, the trkB proteins were probed with an anti-phosphotyrosine (α-ptyr) monoclonal antibody (FIG. 10) (Kaplan et al. (1991)). […] Thus, both neurotrophic factors NT-3 and BDNF can elicit tyrosine phosphorylation of gp145^trkB in a manner similar to that observed for NGF stimulation of the trk receptor. Similar results have been obtained with NT-3 and BDNF in Rat2 cells expressing trkB.
Having detected gp145^trkB phosphorylation in response to BDNF and NT-3, it was next determined whether unrelated polypeptide growth factors were capable of eliciting a similar response. Platelet-derived growth factor (PDGF; 100 ng/ml), epidermal growth factor (EGF; 100 ng/ml), insulin (100 ng/ml), and basic fibroblast growth factor (bFGF; 100 ng/ml), were added independently to exponentially growing cultures of pJM8-3 cells.
The previous studies were done in the presence of high concentrations of neurotrophic factors. Dose response experiments were next performed to determine the range of concentrations at which phosphorylation of the trkB receptor was stimulated by NT-3 or BDNF. Cells were incubated with quantities of NT-3 or BDNF ranging from 0.1 ng/ml to 250 ng/ml and treated as described in FIG. 12. […]

A further assay deals with trkB. Kind of assay: Growth factor stimulation of trkB transfected 3T3 cells (pJM8-3), COS cell supernatants, Ptyr blot. The class given is cell-based. The settings on record: trkB-expressing 3T3 cells (pJM8-3), 100 μl/ml NT-3 COS cell supernatant, 10 minutes at 37° C. As for the experimental part: To study the expression of trkB in transfected cell lines, full length trkB cDNAs were cloned into CMV and MuLV LTR expression vectors and transfected into NIH-3T3 fibroblasts, PC 12 pheochromocytoma cells and NR18 cells (a derivative of PC12 cells). Stable G418 resident clones were picked and expanded. Assays to detect cell lines expressing trkB were performed by detergent lysis of the cells, followed by WGA-sepharose adsorption. The adsorbed material was analyzed by SDS-PAGE on 7.5% gels, transferred to nitrocellulose and probed with antisera 442, a trkB specific rabbit antisera. The Western blots contained a WGA-sepharose extract of mouse brain as a control and BIORAD prestained molecular weight standards (200, 116, 80 and 43 kDa).
To study growth factor stimulation in cells transfected with trkB, NIH 3T3 trk transfected 3T3 (pJM7-23), trkB transfected 3T3 cells (pJM8-3) and non-transfected 3T3 cells (control cells) were exposed to media or media containing 100 μl/ml of NGF-COS cell supernatant, 100 μl/ml NT-3 COS cell supernatant, 5 μl/ml human platelet extract, or 50 μl/ml human platelet extract, for 10 minutes at 37° C. The plates were rinsed, lysed, and the trk or trkB was immunoprecipitated with rabbit antisera 443 and protein A Sepharose in the presence or absence of 10 μg/ml blocking peptide. […]

T1 sequence (P35739 33-799): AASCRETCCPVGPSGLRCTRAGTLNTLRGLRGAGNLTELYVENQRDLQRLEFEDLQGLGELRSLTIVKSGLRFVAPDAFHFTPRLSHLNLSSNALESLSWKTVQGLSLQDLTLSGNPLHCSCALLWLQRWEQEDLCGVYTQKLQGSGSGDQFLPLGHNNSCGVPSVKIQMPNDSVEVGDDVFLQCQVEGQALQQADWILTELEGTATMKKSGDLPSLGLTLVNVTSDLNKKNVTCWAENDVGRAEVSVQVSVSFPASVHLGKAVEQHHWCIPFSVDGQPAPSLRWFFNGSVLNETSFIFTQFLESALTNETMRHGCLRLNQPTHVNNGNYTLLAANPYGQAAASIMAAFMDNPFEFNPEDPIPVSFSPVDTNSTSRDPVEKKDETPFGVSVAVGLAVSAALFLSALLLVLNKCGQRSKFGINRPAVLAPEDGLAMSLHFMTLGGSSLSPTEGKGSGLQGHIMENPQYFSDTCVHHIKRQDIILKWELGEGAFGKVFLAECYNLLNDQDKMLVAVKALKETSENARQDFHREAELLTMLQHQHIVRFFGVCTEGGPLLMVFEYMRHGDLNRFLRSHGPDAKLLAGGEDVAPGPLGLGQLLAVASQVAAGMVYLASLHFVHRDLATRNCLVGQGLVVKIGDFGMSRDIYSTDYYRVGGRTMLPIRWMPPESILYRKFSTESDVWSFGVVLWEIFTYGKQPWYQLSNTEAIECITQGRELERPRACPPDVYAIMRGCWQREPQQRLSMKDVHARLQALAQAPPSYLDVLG
Chain of p140^prototrk (P35739 33-799): as above

Consider `CCCCCCCCCCCCCC(=O)O[C@@H]1[C@@H](C)[C@@]2(O)[C@@H](C=C(CO)C[C@]3(O)C(=O)C(C)=C[C@@H]23)[C@@H]2C(C)(C)[C@]12OC(C)=O` [PMA, phorbal 12-myristate 12-acetate, reference compound], for which, on gp140^prototrk, the “induction of trk tyrosine phosphorylation by growth and differentiation factors” value was “failed to induce”.
In the case of `Cc1ccc(C(=O)Nc2ccc(S(=O)(=O)O)c3cc(S(=O)(=O)O)cc(S(=O)(=O)O)c23)cc1NC(=O)c1cccc(NC(=O)Nc2cccc(C(=O)Nc3cc(C(=O)Nc4ccc(S(=O)(=O)O)c5cc(S(=O)(=O)O)cc(S(=O)(=O)O)c45)ccc3C)c2)c1` [suramin, reference compound], the “tyrosine phosphorylation of p140^prototrk in vivo and in immune complex kinase assays” value at p140^prototrk is reported as “markedly reduced”.
On to “BDNF: NGF related neurotrophic factor, brain-derived neurotrophic factor”, for which, in the assay on gp145^trkB, the “time to detection of trkB tyrosine phosphorylation” value is listed as “one”, the “time to maximal levels of trkB tyrosine phosphorylation” value was at most 5 min, the “concentration giving maximal gp145^trkB phosphorylation” value worked out at 50 ng/mL and the “tyrosine phosphorylation of gp145^trkB” value is “strong phosphorylation”.
Turning to “EGF: epidermal growth factor (Upstate Biotechnology, Inc.) [reference compound]”, in the assay with gp145^trkB, the “tyrosine phosphorylation of gp145^trkB” value is “No tyrosine-phosphorylated gp145^trkB was detected”. The “induction of trk tyrosine phosphorylation by growth and differentiation factors” value with gp140^prototrk is given as “failed to induce”.
Consider PDGF [reference compound], for which, in the assay with gp145^trkB, the “tyrosine phosphorylation of gp145^trkB” value is reported as “No tyrosine-phosphorylated gp145^trkB was detected”.
Take “basic FGF: basic fibroblast growth factor (Boehringer Mannheim Biochemicals) [reference compound]”: the “tyrosine phosphorylation of gp145^trkB” value in the assay on gp145^trkB is listed as “No tyrosine-phosphorylated gp145^trkB was detected”. In addition, in the assay with gp140^prototrk, the “induction of trk tyrosine phosphorylation by growth and differentiation factors” value was “failed to induce”.
In the same order, the values of “insulin: insulin (Sigma) [reference compound]” are “No tyrosine-phosphorylated gp145^trkB was detected” and “failed to induce”.

B1: NT-3: NGF related neurotrophic factor neurotrophin-3; HPLC-purified from Genentech or as COS cell supernatant (protein, UniProt P20783 139-257, looked up)
Neurotrophin-3: YAEHKSHRGEYSVCDSESLWVTDKSSAIDIRGHQVTVLGEIKTGNSPVKQYFYETRCKEARPVKNGCRGIDDKHWNSQCKTSQTYVRALTSENNKLVGWRWIRIDTSCVCALSRKIGRT
As for B1, in the assay on gp145^trkB, the “time to detection of trkB tyrosine phosphorylation” value was “one”, the “time to maximal levels of trkB tyrosine phosphorylation” value was at most 5 min, the “concentration giving maximal gp145^trkB phosphorylation” value stood at 50 ng/mL and the “tyrosine phosphorylation of gp145^trkB” value is “strong phosphorylation”. Further, the “stimulation of trkB tyrosine phosphorylation” value with trkB was “stimulated”.
